What all share (assay type): biochemical
One experiment deals with T1, VEGFR2 (Homo sapiens, UniProt P35968).
T1 construct: purchased Life technology
Kind of experiment: Z'-LYTE in vitro enzyme activity assay, VEGFR2. Conditions: 100 μM ATP, 60 minutes, room temperature; read-out: IC50 detected by Z'-LYTE, VEGFR2. On the procedure: (§1) The enzyme activity was measured by Z′-LYTE™ Detection Kinase Assay. The IC50 value of the compounds was used as an index to evaluate the inhibitory effect of the compounds on VEGFR2, FGFR1 and PDGFRB.
(§2) Recombinant human VEGFR2 and FGFR1 proteases were purchased from Life technology, PDGFRB Protease was purchased from Millipore.
(§3) Z-LYTE™ Kit Tyr1 and Tyr4 were purchased from Life technology. Multi-microplate reader, Envision (PerkinElmer) read board was used.
(§4) The test compounds were diluted 3 times with a concentration gradient, the final concentration was from 10 μM to 0.17 nM with a total of 11 concentrations, and each concentration had two parallel holes; the content of DMSO in the assay was 1%.
3 nM VEGFR2 protein kinase, 2 μM Tyr1 peptide, 100 μM ATP, 50 mM HEPES (pH 7.5), 10 mM MgCl2, 1 mM EGTA, 0.01% BRIJ-35. The detector plate was Black Proxiplate 384-Plus plate (PerkinElmer), the reaction was performed at room temperature for 60 minutes, and the reaction system was 10 μl.
(§5) The reaction was stopped by adding 5 μl of DV reagent B (1:128) to the kinase reaction solution and incubated at 23° C. for 60 minutes. The Envision instrument was used to read the plate.
(§6) The data was converted to phosphorylation rate and inhibition rate and the 4 parameter curve fitting (Model 205 in XLFIT5, iDBS) was used to get IC50 data of the compounds.

The target in the next experiment is T2, FGFR1 (Homo sapiens, UniProt P11362).
T2 construct: purchased Life technology
T2 sequence (P11362 22-822): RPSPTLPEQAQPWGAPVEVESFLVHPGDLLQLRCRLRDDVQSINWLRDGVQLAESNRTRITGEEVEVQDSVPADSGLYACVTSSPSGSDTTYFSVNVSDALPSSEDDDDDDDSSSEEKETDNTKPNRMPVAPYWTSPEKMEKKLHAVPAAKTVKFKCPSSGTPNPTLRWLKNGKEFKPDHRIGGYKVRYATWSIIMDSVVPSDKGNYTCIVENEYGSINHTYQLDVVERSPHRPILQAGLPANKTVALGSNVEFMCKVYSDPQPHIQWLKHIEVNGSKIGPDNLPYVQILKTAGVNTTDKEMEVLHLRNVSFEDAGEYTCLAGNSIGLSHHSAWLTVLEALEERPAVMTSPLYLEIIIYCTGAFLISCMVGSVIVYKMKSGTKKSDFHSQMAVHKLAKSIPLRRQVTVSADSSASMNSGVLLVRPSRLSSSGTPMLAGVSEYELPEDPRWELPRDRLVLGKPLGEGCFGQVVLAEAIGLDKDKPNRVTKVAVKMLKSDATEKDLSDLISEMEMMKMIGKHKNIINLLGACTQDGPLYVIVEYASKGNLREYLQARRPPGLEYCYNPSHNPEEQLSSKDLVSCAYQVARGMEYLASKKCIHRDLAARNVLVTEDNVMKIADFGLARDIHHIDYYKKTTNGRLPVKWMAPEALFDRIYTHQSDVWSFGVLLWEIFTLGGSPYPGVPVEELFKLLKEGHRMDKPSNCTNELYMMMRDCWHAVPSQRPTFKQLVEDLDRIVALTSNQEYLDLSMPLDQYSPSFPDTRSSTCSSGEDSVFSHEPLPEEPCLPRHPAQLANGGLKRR
Kind of experiment: Z'-LYTE in vitro enzyme activity assay, FGFR1. Conditions: 25 μM ATP, 60 minutes, room temperature; read-out: IC50 detected by Z'-LYTE, FGFR1. As for the experimental part: as §1, §2, §3, §4
1 nM FGFR1 protein kinase, 2 μM Tyr4 peptide, 25 μM ATP, 50 mM HEPES (pH 7.5), 10 mM MgCl2, 1 mM EGTA, 0.01% BRIJ-35, 2 mM MnCl2, 1 mM DTT. The detector plate was Black Proxiplate 384-Plus plate (PerkinElmer), the reaction was performed at room temperature for 60 minutes, and the reaction system was 10 μl.
as §5, §6

A further experiment addresses T3, PDGFRB (Homo sapiens, UniProt P09619).
T3 construct: purchased Millipore
Kind of experiment: Z'-LYTE in vitro enzyme activity assay, PDGFRB. Conditions: 100 μM ATP, 60 minutes, room temperature; read-out: IC50 detected by Z'-LYTE, PDGFRB. As for the experimental part:
as §1, §2, §3, §4
40 nM PDGFRB protein kinase, 2 μM Tyr4 peptide, 100 μM ATP, 50 mM HEPES (pH 7.5), 10 mM MgCl2, 1 mM EGTA, 0.01% BRIJ-35, 2 mM MnCl2, 1 mM DTT. The detector plate was Black Proxiplate 384-Plus plate (PerkinElmer), the reaction was performed at room temperature for 60 minutes, and the reaction system was 10 μl.
as §5, §6

Data on 33 molecules can be found in patent publication US10654808B2, “Tyrosine kinase inhibitor and pharmaceutical composition comprising same” (GUANGDONG RAYNOVENT BIOTECH CO., LTD., priority 2015, dated 2020).

Molecules are shown by their SMILES. A value given as a limit tells only on which side of the number the result lay.

T3 sequence (P09619 33-1106): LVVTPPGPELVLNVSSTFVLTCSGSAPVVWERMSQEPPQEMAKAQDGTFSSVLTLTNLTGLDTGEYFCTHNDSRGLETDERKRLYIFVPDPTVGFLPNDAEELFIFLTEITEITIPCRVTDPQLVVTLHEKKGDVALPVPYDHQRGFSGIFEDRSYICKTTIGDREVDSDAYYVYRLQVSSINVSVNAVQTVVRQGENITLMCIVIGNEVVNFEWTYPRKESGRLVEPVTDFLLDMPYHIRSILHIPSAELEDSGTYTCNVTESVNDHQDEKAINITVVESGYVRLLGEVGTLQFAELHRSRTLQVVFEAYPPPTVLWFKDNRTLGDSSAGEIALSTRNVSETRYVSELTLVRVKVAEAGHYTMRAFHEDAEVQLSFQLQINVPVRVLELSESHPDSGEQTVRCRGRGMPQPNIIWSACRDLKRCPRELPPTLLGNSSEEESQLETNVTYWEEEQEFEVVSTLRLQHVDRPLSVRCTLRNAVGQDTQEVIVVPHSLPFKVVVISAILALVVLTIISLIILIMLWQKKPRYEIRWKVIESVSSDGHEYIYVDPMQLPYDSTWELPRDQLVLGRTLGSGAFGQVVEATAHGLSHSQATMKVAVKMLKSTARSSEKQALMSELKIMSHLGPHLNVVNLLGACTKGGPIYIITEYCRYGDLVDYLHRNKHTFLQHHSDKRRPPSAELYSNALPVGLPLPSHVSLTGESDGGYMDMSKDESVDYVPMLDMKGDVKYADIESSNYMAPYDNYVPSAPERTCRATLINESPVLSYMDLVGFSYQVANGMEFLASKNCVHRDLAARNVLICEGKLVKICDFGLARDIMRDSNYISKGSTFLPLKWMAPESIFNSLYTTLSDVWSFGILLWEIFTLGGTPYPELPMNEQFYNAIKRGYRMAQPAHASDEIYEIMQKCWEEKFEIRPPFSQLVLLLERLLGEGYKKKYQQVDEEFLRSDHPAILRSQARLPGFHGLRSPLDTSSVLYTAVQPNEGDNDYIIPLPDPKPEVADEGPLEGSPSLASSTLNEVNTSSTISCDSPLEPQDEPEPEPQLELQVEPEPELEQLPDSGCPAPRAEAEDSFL
T1 sequence (P35968 20-1356): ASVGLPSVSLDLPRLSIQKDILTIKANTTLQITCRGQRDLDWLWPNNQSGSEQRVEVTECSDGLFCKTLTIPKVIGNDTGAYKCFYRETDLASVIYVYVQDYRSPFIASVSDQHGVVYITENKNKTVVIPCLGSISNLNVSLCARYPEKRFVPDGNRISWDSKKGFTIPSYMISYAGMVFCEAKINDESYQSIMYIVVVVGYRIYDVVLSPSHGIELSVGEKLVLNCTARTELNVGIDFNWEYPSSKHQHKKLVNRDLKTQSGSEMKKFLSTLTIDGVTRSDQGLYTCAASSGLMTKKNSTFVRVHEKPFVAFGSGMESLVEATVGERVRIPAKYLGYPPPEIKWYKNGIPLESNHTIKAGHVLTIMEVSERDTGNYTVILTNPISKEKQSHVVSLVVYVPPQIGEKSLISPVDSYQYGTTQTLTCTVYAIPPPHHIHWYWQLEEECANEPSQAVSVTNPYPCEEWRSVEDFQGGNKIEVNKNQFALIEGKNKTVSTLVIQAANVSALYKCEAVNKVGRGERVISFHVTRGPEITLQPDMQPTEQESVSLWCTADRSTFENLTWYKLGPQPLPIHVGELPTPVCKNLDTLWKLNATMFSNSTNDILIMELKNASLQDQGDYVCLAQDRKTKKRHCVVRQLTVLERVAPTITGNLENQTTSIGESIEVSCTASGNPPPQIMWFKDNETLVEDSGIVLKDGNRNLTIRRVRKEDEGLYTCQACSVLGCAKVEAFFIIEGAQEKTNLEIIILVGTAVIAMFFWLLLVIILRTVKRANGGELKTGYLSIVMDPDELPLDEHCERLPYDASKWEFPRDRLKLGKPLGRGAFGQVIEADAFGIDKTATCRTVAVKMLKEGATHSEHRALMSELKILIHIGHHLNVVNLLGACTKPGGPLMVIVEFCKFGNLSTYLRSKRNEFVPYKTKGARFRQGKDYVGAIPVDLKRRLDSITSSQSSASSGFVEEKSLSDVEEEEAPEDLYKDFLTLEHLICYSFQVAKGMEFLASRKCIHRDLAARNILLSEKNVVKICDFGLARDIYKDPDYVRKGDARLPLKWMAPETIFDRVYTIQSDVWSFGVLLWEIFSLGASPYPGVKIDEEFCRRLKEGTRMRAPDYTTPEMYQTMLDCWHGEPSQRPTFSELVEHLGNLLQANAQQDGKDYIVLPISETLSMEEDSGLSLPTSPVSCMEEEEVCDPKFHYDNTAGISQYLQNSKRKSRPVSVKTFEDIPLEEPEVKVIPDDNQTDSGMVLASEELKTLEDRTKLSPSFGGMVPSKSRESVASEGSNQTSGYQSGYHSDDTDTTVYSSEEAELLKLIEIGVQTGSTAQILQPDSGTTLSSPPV

As a reminder, the IC50 is the concentration needed to halve the response being measured. As for `COc1cc2nccc(Oc3ccc(Nc4c(NCc5ccccc5)c(=O)c4=O)c(Cl)c3)c2cc1C(N)=O` [Example 148], the concentration for half-maximal inhibition (IC50) at VEGFR2 is 200 to 1000 nM; at FGFR1, 200 to 1000 nM; on PDGFRB it was < 50 nM.

Regarding `COc1cc2nccc(Oc3ccc(NC(=S)NC4CC4)c(Cl)c3)c2cc1C(=O)NC1CC1` [Example 54], the figures for the IC50 at VEGFR2, on FGFR1 and on PDGFRB were 50 to 200 nM, 200 to 1000 nM and 200 to 1000 nM, respectively.

Take `COc1cc2nccc(Oc3ccc(NC(=S)N4CC[C@H](O)C4)c(Cl)c3)c2cc1C(N)=O` [Example 74]: the values for the IC50 at VEGFR2, at FGFR1 and at PDGFRB were 50 to 200 nM, 200 to 1000 nM and 200 to 1000 nM, respectively.

Turning to `COc1cc2nccc(Oc3ccc(CC(=O)N4CC(F)(F)C4)cc3)c2cc1C(N)=O` [Example 177], the IC50 at VEGFR2 is 200 to 1000 nM; on FGFR1, 200 to 1000 nM; on PDGFRB, 50 to 200 nM.

Turning to `COc1cc2nccc(Oc3ccc4c(C(=O)N5CCCC5)c[nH]c4c3)c2cc1C(N)=O` [Example 188], the 50% inhibitory concentration (IC50) on VEGFR2, at FGFR1 and at PDGFRB was 200 to 1000 nM each time.

In the case of `COc1cc2nccc(Oc3ccc4nc(NCC(C)C)sc4c3)c2cc1C(N)=O` [Example 156], the IC50 on VEGFR2, at FGFR1 and at PDGFRB was 200 to 1000 nM in each case.

On to `COc1cc2nccc(Oc3ccc(NC(=S)NC4CC4)c(Cl)c3)c2cc1C(=O)N1CCCC1` [Example 48], for which the IC50 on VEGFR2 lay within 200 to 1000 nM; at FGFR1, 200 to 1000 nM; on PDGFRB, 50 to 200 nM.

`COc1cc2nccc(Oc3ccc(NC(=S)NCc4ccc(F)cc4)c(Cl)c3)c2cc1C(N)=O` [Example 17]: the IC50 at VEGFR2 lay within 200 to 1000 nM; on FGFR1, 200 to 1000 nM; on PDGFRB it was 50 to 200 nM.

Take `COc1cc2nccc(Oc3ccc(NC(=S)NCCN(C)C)c(Cl)c3)c2cc1C(N)=O` [Example 23]: the 50% inhibitory concentration (IC50) was in the range of 200 to 1000 nM on VEGFR2, 200 to 1000 nM at FGFR1 and 50 to 200 nM at PDGFRB.

For `COc1cc2nccc(Oc3ccc4c(C(=O)N5CC[C@H](F)C5)coc4c3)c2cc1C(N)=O` [Example 205], the IC50 at VEGFR2, at FGFR1 and at PDGFRB was 200 to 1000 nM throughout.

Turning to `CCN(CC)CCNC(=O)c1cc2c(Oc3ccc(NC(=S)NC4CC4)c(Cl)c3)ccnc2cc1OC` [Example 39], the figures for the IC50 at VEGFR2, at FGFR1 and on PDGFRB were 50 to 200 nM, 200 to 1000 nM and 50 to 200 nM, respectively.

As for `COc1cc2nccc(Oc3ccc(NC(=O)N4CCCC4)c(Cl)c3F)c2cc1C(N)=O` [Example 120], the IC50 was in the range of 50 to 200 nM at VEGFR2, 200 to 1000 nM at FGFR1 and 50 to 200 nM on PDGFRB.

Consider `COc1cc2nccc(Oc3ccc(NC(=S)Nc4cc[nH]n4)c(Cl)c3)c2cc1C(N)=O` [Example 4], for which the IC50 lay within 50 to 200 nM at VEGFR2, 200 to 1000 nM on FGFR1 and 200 to 1000 nM on PDGFRB.

Take `COc1cc2nccc(Oc3ccc(Nc4c(NCc5ccncc5)c(=O)c4=O)c(Cl)c3)c2cc1C(N)=O` [Example 153]: the IC50 on VEGFR2, at FGFR1 and at PDGFRB was 200 to 1000 nM throughout.

For the molecule `COc1cc2nccc(Oc3ccc(NC(=O)N4CC(O)C4)c(Cl)c3F)c2cc1C(N)=O` [Example 121], the IC50 at VEGFR2 is 50 to 200 nM; at FGFR1 it was 200 to 1000 nM; at PDGFRB it was 200 to 1000 nM.

In the case of `COc1cc2nccc(Oc3ccc(N4CC(=O)N(C)C4=S)c(Cl)c3)c2cc1C(N)=O` [Example 82], the half-maximal inhibitory concentration (IC50) on VEGFR2 lay in the range of 200 to 1000 nM; on FGFR1, 200 to 1000 nM; on PDGFRB, 50 to 200 nM.

For the molecule `COc1cc2nccc(Oc3ccc(NC(=S)NC4CC=C(F)CC4)c(Cl)c3)c2cc1C(N)=O` (stereo not drawn) [Example 60], the IC50 at VEGFR2, at FGFR1 and on PDGFRB was 200 to 1000 nM each time.

For the molecule `COc1cc2ncc(Cl)c(Oc3ccc(NC(=S)NC4CC4)c(Cl)c3)c2cc1C(N)=O` [Example 84], the IC50 on VEGFR2, on FGFR1 and at PDGFRB was 200 to 1000 nM throughout.

Regarding `COc1cc2nccc(Oc3cc(Br)c4c(C(=O)N5CC(F)(F)C5)coc4c3)c2cc1C(N)=O` [Example 204], the half-maximal inhibitory concentration (IC50) on VEGFR2, on FGFR1 and on PDGFRB was 200 to 1000 nM each time.

In the case of `CCNC(=O)c1coc2cc(Oc3ccnc4cc(OC)c(C(N)=O)cc34)c(F)cc12` [Example 208], the IC50 was 50 to 200 nM at VEGFR2, 200 to 1000 nM on FGFR1 and < 50 nM on PDGFRB.

On to `COc1cc2nccc(Oc3ccc(NC(=O)NC(C)C(F)(F)F)c(Cl)c3)c2cc1C(N)=O` (stereo not drawn) [Example 36], for which the half-inhibitory concentration (IC50) at VEGFR2, on FGFR1 and at PDGFRB was 200 to 1000 nM throughout.

As to `COc1cc2nccc(Oc3ccc(Nc4c(NC5CCC5)c(=O)c4=O)c(Cl)c3)c2cc1C(N)=O` [Example 145], the IC50 was 200 to 1000 nM on VEGFR2, 200 to 1000 nM at FGFR1 and < 50 nM at PDGFRB.

In the case of `O=C(Nc1ccc(Oc2ccnc3cc(-c4cncn4-c4ccccc4)ccc23)c(F)c1Cl)NC1CC1` [Example 227], the half-inhibitory concentration (IC50) on VEGFR2 lay within 50 to 200 nM; at FGFR1 it was 200 to 1000 nM; on PDGFRB, 200 to 1000 nM.

With `COc1cc2nccc(Oc3ccc(NC(=S)N4CC[C@H](O)C4)c(Cl)c3F)c2cc1C(N)=O` [Example 106], the IC50 at VEGFR2 is < 50 nM; at FGFR1, 50 to 200 nM; on PDGFRB, 200 to 1000 nM.

Consider `COc1cc2nccc(Oc3ccc(NC(=S)NCc4ccc(Cl)cc4)c(Cl)c3)c2cc1C(N)=O` [Example 9], for which the IC50 at VEGFR2 was 200 to 1000 nM; at FGFR1 it was 200 to 1000 nM; on PDGFRB, < 50 nM.

With `COc1cc2nccc(Oc3ccc(Nc4c(NCc5ccc(Cl)cc5)c(=O)c4=O)c(Cl)c3)c2cc1C(N)=O` [Example 151], the figures for the IC50 at VEGFR2, on FGFR1 and at PDGFRB were 200 to 1000 nM, 200 to 1000 nM and < 50 nM, respectively.

For `COc1cc2nccc(Oc3ccc(NC(=S)NC4CCNC4=O)c(Cl)c3)c2cc1C(N)=O` (stereo not drawn) [Example 94], the IC50 at VEGFR2, on FGFR1 and at PDGFRB was 200 to 1000 nM throughout.

Take `COc1cc2nccc(Oc3ccc(NC(=S)NC4CC4)c(Cl)c3)c2cc1C(=O)NCC(F)(F)F` [Example 38]: the half-inhibitory concentration (IC50) was 50 to 200 nM on VEGFR2, 200 to 1000 nM on FGFR1 and 200 to 1000 nM on PDGFRB.

In the case of `COc1cc2nccc(Oc3ccc(NC(=O)N4CC(F)C4)c(Cl)c3F)c2cc1C(N)=O` [Example 122], the IC50 at VEGFR2 was 50 to 200 nM; at FGFR1, 200 to 1000 nM; on PDGFRB, < 50 nM.

As for `COc1cc2nccc(Oc3ccc(Nc4c(NCC(C)C)c(=O)c4=O)c(Cl)c3)c2cc1C(N)=O` [Example 144], the half-maximal inhibitory concentration (IC50) at VEGFR2, at FGFR1 and on PDGFRB was 200 to 1000 nM each time.

Consider `COc1cc2nccc(Oc3ccc(NC(=S)Nc4cnc(C)s4)c(Cl)c3)c2cc1C(N)=O` [Example 71], for which the values for the IC50 on VEGFR2, at FGFR1 and on PDGFRB were 50 to 200 nM, 200 to 1000 nM and 50 to 200 nM, respectively.

Regarding `COc1cc2nccc(Oc3ccc(NC(=S)NC4CCC(F)(F)CC4)c(Cl)c3)c2cc1C(N)=O` [Example 61], the IC50 lay within 200 to 1000 nM at VEGFR2, 200 to 1000 nM on FGFR1 and 50 to 200 nM at PDGFRB.

Turning to `COc1cc2nccc(Oc3ccc(N4C(=O)CNC4=S)c(Cl)c3)c2cc1C(N)=O` [Example 166], the figures for the IC50 on VEGFR2, on FGFR1 and on PDGFRB were < 50 nM, 200 to 1000 nM and 50 to 200 nM, respectively.
